#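 48-hour exposure; five concentrations; linearly interpolated endpoints. Abbreviation: GI50, concentration required for 50% inhibition of growth. TGI is the concentration that stops growth completely.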
# How the values were obtained:
# Assay in all cases: NCI tumour cell line growth inhibition, 48 h
# HS 578T breast = test system: HS 578T breast
# MDA-MB-468 breast = test system: MDA-MB-468 breast
# EKVX NSCLC = test system: EKVX NSCLC
# SNB-19 CNS = test system: SNB-19 CNS
# RXF 393 renal = test system: RXF 393 renal
# NCI-H460 lung = test system: NCI-H460 lung
# SF-295 CNS = test system: SF-295 CNS
# ACHN renal = test system: ACHN renal
# SR leukemia = test system: SR leukemia
# HL-60(TB) leukemia = test system: HL-60(TB) leukemia
# 786-0 renal = test system: 786-0 renal
# OVCAR-8 ovarian = test system: OVCAR-8 ovarian
# UO-31 renal = test system: UO-31 renal
# OVCAR-4 ovarian = test system: OVCAR-4 ovarian
# LOX IMVI melanoma = test system: LOX IMVI melanoma
# SK-OV-3 ovarian = test system: SK-OV-3 ovarian
# KM12 colon = test system: KM12 colon
# M14 melanoma = test system: M14 melanoma
# HCT-116 colon = test system: HCT-116 colon
# COLO 205 colon = test system: COLO 205 colon
# NCI-H226 lung = test system: NCI-H226 lung
# BT-549 breast = test system: BT-549 breast
# UACC-257 melanoma = test system: UACC-257 melanoma
# SN12C renal = test system: SN12C renal
# NCI-H522 lung = test system: NCI-H522 lung
# RPMI-8226 leukemia = test system: RPMI-8226 leukemia
# CCRF-CEM leukemia = test system: CCRF-CEM leukemia
# MALME-3M melanoma = test system: MALME-3M melanoma
# A498 renal = test system: A498 renal
# OVCAR-3 ovarian = test system: OVCAR-3 ovarian
# HT29 colon = test system: HT29 colon
# MDA-MB-435 = test system: MDA-MB-435
# NCI/ADR-RES ovarian = test system: NCI/ADR-RES ovarian
# SK-MEL-5 melanoma = test system: SK-MEL-5 melanoma
# HCT-15 colon = test system: HCT-15 colon
# MDA-MB-231 breast = test system: MDA-MB-231 breast
# SK-MEL-2 melanoma = test system: SK-MEL-2 melanoma
# A549 NSCLC = test system: A549 NSCLC
# OVCAR-5 ovarian = test system: OVCAR-5 ovarian
# T-47D breast = test system: T-47D breast
# DU-145 prostate = test system: DU-145 prostate
# MCF7 breast = test system: MCF7 breast
# HOP-92 NSCLC = test system: HOP-92 NSCLC
# CAKI-1 renal = test system: CAKI-1 renal
# MOLT-4 leukemia = test system: MOLT-4 leukemia
# SF-268 CNS = test system: SF-268 CNS
# SF-539 CNS = test system: SF-539 CNS
# SNB-75 CNS = test system: SNB-75 CNS
# U251 CNS = test system: U251 CNS
# IGROV1 ovarian = test system: IGROV1 ovarian
# K-562 leukemia = test system: K-562 leukemia
# NCI-H23 lung = test system: NCI-H23 lung
# TK-10 renal = test system: TK-10 renal
# HOP-62 NSCLC = test system: HOP-62 NSCLC
structure (smiles),measurement,setting,value
COc1ccc2[nH]c(O)c(N=Nc3nc(-c4ccc(Cl)cc4)cs3)c2c1,GI50,HS 578T breast,4.54 µM
same,TGI,HS 578T breast,99.7 µM
same,GI50,MDA-MB-468 breast,1.45 µM
same,TGI,MDA-MB-468 breast,3.24 µM
same,GI50,EKVX NSCLC,2.7 µM
same,TGI,EKVX NSCLC,21.4 µM
same,GI50,SNB-19 CNS,4.56 µM
same,TGI,SNB-19 CNS,38.3 µM
same,GI50,RXF 393 renal,1.67 µM
same,TGI,RXF 393 renal,3.29 µM
same,GI50,NCI-H460 lung,2.68 µM
same,TGI,NCI-H460 lung,6.25 µM
same,GI50,SF-295 CNS,5.01 µM
same,TGI,SF-295 CNS,20.6 µM
same,GI50,ACHN renal,2.9 µM
same,TGI,ACHN renal,8.71 µM
same,GI50,SR leukemia,4.69 µM
same,TGI,SR leukemia,> 100 µM
same,GI50,HL-60(TB) leukemia,> 100 µM
same,TGI,HL-60(TB) leukemia,> 100 µM
same,GI50,786-0 renal,1.6 µM
same,TGI,786-0 renal,3.09 µM
same,GI50,OVCAR-8 ovarian,1.86 µM
same,TGI,OVCAR-8 ovarian,3.71 µM
same,GI50,UO-31 renal,3.3 µM
same,TGI,UO-31 renal,16.3 µM
same,GI50,OVCAR-4 ovarian,1.83 µM
same,TGI,OVCAR-4 ovarian,3.54 µM
same,GI50,LOX IMVI melanoma,1.9 µM
same,TGI,LOX IMVI melanoma,4.08 µM
same,GI50,SK-OV-3 ovarian,3.07 µM
same,TGI,SK-OV-3 ovarian,19.7 µM
same,GI50,KM12 colon,3.15 µM
same,TGI,KM12 colon,> 100 µM
same,GI50,M14 melanoma,1.99 µM
same,TGI,M14 melanoma,5.29 µM
same,GI50,HCT-116 colon,1.88 µM
same,TGI,HCT-116 colon,3.75 µM
same,GI50,COLO 205 colon,3.1 µM
same,TGI,COLO 205 colon,> 100 µM
same,GI50,NCI-H226 lung,3 µM
same,TGI,NCI-H226 lung,12.4 µM
same,GI50,BT-549 breast,3.21 µM
same,TGI,BT-549 breast,28.3 µM
same,GI50,UACC-257 melanoma,6.52 µM
same,TGI,UACC-257 melanoma,> 100 µM
same,GI50,SN12C renal,1.93 µM
same,TGI,SN12C renal,4.42 µM
same,GI50,NCI-H522 lung,2.09 µM
same,TGI,NCI-H522 lung,6.38 µM
same,GI50,RPMI-8226 leukemia,3.91 µM
same,TGI,RPMI-8226 leukemia,> 100 µM
same,GI50,CCRF-CEM leukemia,4.1 µM
same,TGI,CCRF-CEM leukemia,> 100 µM
same,GI50,MALME-3M melanoma,1.74 µM
same,TGI,MALME-3M melanoma,3.37 µM
same,GI50,A498 renal,2.22 µM
same,TGI,A498 renal,4.94 µM
same,GI50,OVCAR-3 ovarian,1.81 µM
same,TGI,OVCAR-3 ovarian,3.53 µM
same,GI50,HT29 colon,3.52 µM
same,TGI,HT29 colon,50.8 µM
same,GI50,MDA-MB-435,5.86 µM
same,TGI,MDA-MB-435,> 100 µM
same,GI50,NCI/ADR-RES ovarian,1.92 µM
same,TGI,NCI/ADR-RES ovarian,4.03 µM
same,GI50,SK-MEL-5 melanoma,4.1 µM
same,TGI,SK-MEL-5 melanoma,19.4 µM
same,GI50,HCT-15 colon,1.93 µM
same,TGI,HCT-15 colon,4.14 µM
same,GI50,MDA-MB-231 breast,2.73 µM
same,TGI,MDA-MB-231 breast,8.19 µM
same,GI50,SK-MEL-2 melanoma,3.14 µM
same,TGI,SK-MEL-2 melanoma,34.4 µM
same,GI50,A549 NSCLC,2.08 µM
same,TGI,A549 NSCLC,5.09 µM
same,GI50,OVCAR-5 ovarian,3.09 µM
same,TGI,OVCAR-5 ovarian,17 µM
same,GI50,T-47D breast,1.83 µM
same,TGI,T-47D breast,5.97 µM
same,GI50,DU-145 prostate,3.61 µM
same,TGI,DU-145 prostate,30.9 µM
same,GI50,MCF7 breast,2.53 µM
same,TGI,MCF7 breast,16.7 µM
same,GI50,HOP-92 NSCLC,1.92 µM
same,TGI,HOP-92 NSCLC,4.88 µM
same,GI50,CAKI-1 renal,6.7 µM
same,TGI,CAKI-1 renal,30.6 µM
same,GI50,MOLT-4 leukemia,3.26 µM
same,TGI,MOLT-4 leukemia,> 100 µM
same,GI50,SF-268 CNS,4.41 µM
same,TGI,SF-268 CNS,> 100 µM
same,GI50,SF-539 CNS,1.98 µM
same,TGI,SF-539 CNS,4.22 µM
same,GI50,SNB-75 CNS,3.36 µM
same,TGI,SNB-75 CNS,17.5 µM
same,GI50,U251 CNS,2.06 µM
same,TGI,U251 CNS,4.18 µM
same,GI50,IGROV1 ovarian,4.51 µM
same,TGI,IGROV1 ovarian,60.8 µM
same,GI50,K-562 leukemia,3.49 µM
same,TGI,K-562 leukemia,> 100 µM
same,GI50,NCI-H23 lung,2.12 µM
same,TGI,NCI-H23 lung,5.62 µM
same,GI50,TK-10 renal,9.16 µM
same,TGI,TK-10 renal,32.3 µM
same,GI50,HOP-62 NSCLC,2.61 µM
same,TGI,HOP-62 NSCLC,9.06 µM
C[C@@H]1CCC2[C@@H](C)[C@H](OC(=O)CCC(=O)NCCNC(=O)Cc3cc(=O)oc4cc(N(C)C)ccc34)O[C@@H]3O[C@]4(C)CC[C@@H]1C23OO4 (stereo partly specified),GI50,MDA-MB-468 breast,13.4 µM
same,TGI,MDA-MB-468 breast,59.4 µM
Cc1[nH]ccc2cc3nc4ccccc4c3cc12,GI50,MDA-MB-468 breast,1.91 µM
same,TGI,MDA-MB-468 breast,9.09 µM
COc1cc(C(=O)/C=C/c2c(-c3cccs3)nc3ccccn23)cc(OC)c1OC,GI50,MDA-MB-468 breast,1.72 µM
same,TGI,MDA-MB-468 breast,3.4 µM
CC(C)(C)n1cc(-c2ccnc(NCCCNS(=O)(=O)c3ccc(Cl)cc3)c2)c(-c2cccc(O)c2)n1,GI50,MDA-MB-468 breast,1.8 µM
same,TGI,MDA-MB-468 breast,4.16 µM

# Source: PubChem BioAssay (NCI)
